Experimental data published in patent publication US4504478A, “Cephalosporin-1-oxide derivatives” (Imperial Chemical Industries PLC, priority 1982, dated 1985).

How the values were obtained:
Test in all cases: MIC by agar-dilution, in vitro antibacterial test
Assay type in all cases: cell-based
[1] = tested on: E. coli; settings: Code No. A8, Jewell and Pearmain agar medium, inoculum ~10^5 CFU
From the text: (§1) As noted above the cephalosporin derivative of the invention has antibacterial properties, having a broad spectrum of activity in vitro against standard laboratory microorganisms, both Gram-negative and Gram-positive, which are used to screen for activity against pathogenic bacteria. The antibacterial spectrum and potency of a particular compound may be determined in a standard test system.
(§2) The results set out in the following Table of the compound described in Example 1 are illustrative of the biological activity of the compounds of the present invention. The results are those obtained on a standard in vitro test system using Jewell and Pearmain agar medium. The antibacterial activity is described in terms of the minimum inhibitory concentration (MIC) determined by agar - dilution technique with an inoculum size of ~10^5 CFU.

[2] = tested on: Ent. cloacae; settings: Code No. A13, Jewell and Pearmain agar medium, inoculum ~10^5 CFU
From the text: as §1, §2

[3] = tested on: K. aerogenes; settings: Code No. A10, Jewell and Pearmain agar medium, inoculum ~10^5 CFU
From the text: as §1, §2

[4] = tested on: Proteus mirabilis; settings: Code No. A18, Jewell and Pearmain agar medium, inoculum ~10^5 CFU
From the text: as §1, §2

[5] = tested on: Ps. aeruginosa; settings: Code No. A21, Jewell and Pearmain agar medium, inoculum ~10^5 CFU
From the text: as §1, §2

[6] = tested on: Salmonella dublin; settings: Code No. A20, Jewell and Pearmain agar medium, inoculum ~10^5 CFU
From the text: as §1, §2

[7] = tested on: Serratia marescens; settings: Code No. A16, Jewell and Pearmain agar medium, inoculum ~10^5 CFU
From the text: as §1, §2

[8] = tested on: Staph. aureus; settings: Code No. A6, Jewell and Pearmain agar medium, inoculum ~10^5 CFU
From the text: as §1, §2

[9] = tested on: Strep. pyrogenes; settings: Code No. A1, Jewell and Pearmain agar medium, inoculum ~10^5 CFU
From the text: as §1, §2

CC(=O)OCC1=C(C(=O)O)N2C(=O)C(Nc3ncc[nH]3)C2[S+]([O-])C1.O=C(O)C(F)(F)F (stereo not drawn) [Example 1, 3-acetoxymethyl-7-(imidazol-2-yl)aminoceph-3-em-1β-oxide-4-carboxylicacid trifluoroacetate]
minimum inhibitory concentration (MIC) [1]: 2 µg/mL | minimum inhibitory concentration (MIC) [2]: 2 µg/mL | minimum inhibitory concentration (MIC) [3]: 4 µg/mL | minimum inhibitory concentration (MIC) [4]: > 128 µg/mL | minimum inhibitory concentration (MIC) [5]: > 128 µg/mL | minimum inhibitory concentration (MIC) [6]: 1 µg/mL | minimum inhibitory concentration (MIC) [7]: 64 µg/mL | minimum inhibitory concentration (MIC) [8]: > 128 µg/mL | minimum inhibitory concentration (MIC) [9]: 64 µg/mL
